From PubChem BioAssay (NCI)
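Each compound was tested at five concentrations against cells in 96-well plates for 48 hours. GI50: concentration for 50% inhibition of growth. TGI is the concentration that stops growth completely.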

Experiments:
Test in all cases: NCI anticancer screen, dose series, 48 h; in the data active = GI50 below about 0.43 µM; inactive = the rest
CCRF-CEM leukemia = test system: CCRF-CEM leukemia
COLO 205 colon = test system: COLO 205 colon
HCC-2998 colon = test system: HCC-2998 colon
K-562 leukemia = test system: K-562 leukemia
LOX IMVI melanoma = test system: LOX IMVI melanoma
OVCAR-4 ovarian = test system: OVCAR-4 ovarian
RPMI-8226 leukemia = test system: RPMI-8226 leukemia
SF-268 CNS = test system: SF-268 CNS
SNB-19 CNS = test system: SNB-19 CNS
U251 CNS = test system: U251 CNS

c1cc(OCCN2CCCCCC2)ccc1CNc1ccc2nc(CCC3CCCCC3)[nH]c2c1
13.8 µM: TGI (OVCAR-4 ovarian)
inactive: GI50 (CCRF-CEM leukemia) 2.08 µM | GI50 (COLO 205 colon) 1.81 µM | GI50 (HCC-2998 colon) 1.99 µM | GI50 (K-562 leukemia) 1.63 µM | GI50 (LOX IMVI melanoma) 1.74 µM | GI50 (OVCAR-4 ovarian) 3.2 µM | GI50 (RPMI-8226 leukemia) 1.5 µM | GI50 (SF-268 CNS) 2.42 µM | GI50 (SNB-19 CNS) 3.05 µM | GI50 (U251 CNS) 1.6 µM
3.79 µM: TGI (RPMI-8226 leukemia)
3.57 µM: TGI (COLO 205 colon)
3.98 µM: TGI (HCC-2998 colon)
4.61 µM: TGI (K-562 leukemia)
11.4 µM: TGI (SNB-19 CNS)
9.2 µM: TGI (SF-268 CNS)
3.2 µM: TGI (LOX IMVI melanoma)
3.17 µM: TGI (U251 CNS)
10.1 µM: TGI (CCRF-CEM leukemia)

O=c1cc(-c2ccc(Cl)cc2)[nH]c2ncccc12
83 µM: TGI (COLO 205 colon)
76.1 µM: TGI (K-562 leukemia)
> 100 µM: TGI (CCRF-CEM leukemia) | TGI (HCC-2998 colon) | TGI (LOX IMVI melanoma) | TGI (OVCAR-4 ovarian) | TGI (SF-268 CNS) | TGI (SNB-19 CNS) | TGI (U251 CNS)
95 µM: TGI (RPMI-8226 leukemia)

ClCc1ccc(-c2ccc(Cn3cnc4c(Cl)nc(Cl)nc43)cc2)cc1
13.3 µM: TGI (OVCAR-4 ovarian)
inactive: GI50 (CCRF-CEM leukemia) 2.36 µM | GI50 (COLO 205 colon) 2.72 µM | GI50 (HCC-2998 colon) 1.41 µM | GI50 (K-562 leukemia) 10.4 µM | GI50 (LOX IMVI melanoma) 1.64 µM | GI50 (OVCAR-4 ovarian) 3.39 µM | GI50 (RPMI-8226 leukemia) 2.33 µM | GI50 (SF-268 CNS) 2.01 µM | GI50 (SNB-19 CNS) 1.95 µM | GI50 (U251 CNS) 1.89 µM
3.2 µM: TGI (LOX IMVI melanoma)
2.9 µM: TGI (HCC-2998 colon)
3.64 µM: TGI (U251 CNS)
5.77 µM: TGI (RPMI-8226 leukemia)
4.15 µM: TGI (SNB-19 CNS)
5.9 µM: TGI (CCRF-CEM leukemia)
> 100 µM: TGI (K-562 leukemia)
8.53 µM: TGI (COLO 205 colon)
4.77 µM: TGI (SF-268 CNS)

O=C1N=C(c2ccccc2)OC1C(=O)c1ccccc1 (centres undefined)
> 100 µM: TGI (CCRF-CEM leukemia) | TGI (COLO 205 colon) | TGI (HCC-2998 colon) | TGI (K-562 leukemia) | TGI (LOX IMVI melanoma) | TGI (OVCAR-4 ovarian) | TGI (RPMI-8226 leukemia) | TGI (SF-268 CNS) | TGI (SNB-19 CNS) | TGI (U251 CNS)

COc1ccc(N(CC(=O)NCCC[Te]c2ccccc2)C(=O)CCSC2=C(C)C(=O)c3ccccc3C2=O)cc1
12.1 µM: TGI (SNB-19 CNS)
11.2 µM: TGI (OVCAR-4 ovarian)
3.54 µM: TGI (LOX IMVI melanoma)
5.66 µM: TGI (RPMI-8226 leukemia)
inactive: GI50 (CCRF-CEM leukemia) 0.508 µM | GI50 (COLO 205 colon) 1.99 µM | GI50 (HCC-2998 colon) 1.67 µM | GI50 (K-562 leukemia) 2.48 µM | GI50 (LOX IMVI melanoma) 1.5 µM | GI50 (OVCAR-4 ovarian) 2.95 µM | GI50 (RPMI-8226 leukemia) 1.02 µM | GI50 (SF-268 CNS) 1.11 µM | GI50 (SNB-19 CNS) 2.91 µM | GI50 (U251 CNS) 0.553 µM
4.44 µM: TGI (HCC-2998 colon)
3.64 µM: TGI (COLO 205 colon)
> 22.7 µM: TGI (K-562 leukemia)
2.32 µM: TGI (U251 CNS)
3.99 µM: TGI (SF-268 CNS)

C[C@@H](CO)OCOCc1ccccc1
> 100 µM: TGI (CCRF-CEM leukemia) | TGI (COLO 205 colon) | TGI (HCC-2998 colon) | TGI (K-562 leukemia) | TGI (LOX IMVI melanoma) | TGI (OVCAR-4 ovarian) | TGI (RPMI-8226 leukemia) | TGI (SF-268 CNS) | TGI (SNB-19 CNS) | TGI (U251 CNS)

C/C=C/C=N/N(C(=O)c1cc([N+](=O)[O-])cc([N+](=O)[O-])c1)C1=NC(c2ccccc2)C(c2ccccc2)=NN1 (centres undefined)
> 100 µM: TGI (CCRF-CEM leukemia) | TGI (HCC-2998 colon) | TGI (K-562 leukemia) | TGI (LOX IMVI melanoma) | TGI (OVCAR-4 ovarian) | TGI (RPMI-8226 leukemia) | TGI (SF-268 CNS) | TGI (SNB-19 CNS) | TGI (U251 CNS)
75 µM: TGI (COLO 205 colon)

S=c1nc2[nH]ncc2c(N/N=C/c2ccccc2)[nH]1
inactive: GI50 (CCRF-CEM leukemia) 78.6 µM | GI50 (COLO 205 colon) > 100 µM | GI50 (HCC-2998 colon) > 100 µM | GI50 (K-562 leukemia) > 100 µM | GI50 (LOX IMVI melanoma) 64 µM | GI50 (OVCAR-4 ovarian) > 100 µM | GI50 (RPMI-8226 leukemia) 60.6 µM | GI50 (SF-268 CNS) > 100 µM | GI50 (SNB-19 CNS) > 100 µM | GI50 (U251 CNS) 93.8 µM
> 100 µM: TGI (CCRF-CEM leukemia) | TGI (COLO 205 colon) | TGI (HCC-2998 colon) | TGI (K-562 leukemia) | TGI (LOX IMVI melanoma) | TGI (OVCAR-4 ovarian) | TGI (RPMI-8226 leukemia) | TGI (SF-268 CNS) | TGI (SNB-19 CNS) | TGI (U251 CNS)

C=C1C(=O)O[C@H]2[C@H]1CC/C(Cn1cc(Cn3ccc4ccccc43)nn1)=C\CC[C@@]1(C)O[C@@H]21
3.08 µM: TGI (LOX IMVI melanoma)
3.63 µM: TGI (SF-268 CNS)
3.66 µM: TGI (HCC-2998 colon)
15.7 µM: TGI (SNB-19 CNS)
3.46 µM: TGI (OVCAR-4 ovarian)
4.7 µM: TGI (RPMI-8226 leukemia)
inactive: GI50 (COLO 205 colon) 1.71 µM | GI50 (HCC-2998 colon) 1.93 µM | GI50 (K-562 leukemia) 1.77 µM | GI50 (LOX IMVI melanoma) 1.59 µM | GI50 (OVCAR-4 ovarian) 1.67 µM | GI50 (RPMI-8226 leukemia) 1.68 µM | GI50 (SF-268 CNS) 1.82 µM | GI50 (SNB-19 CNS) 3.88 µM | GI50 (U251 CNS) 3.42 µM
5.65 µM: TGI (K-562 leukemia)
1.73 µM: TGI (CCRF-CEM leukemia)
3.41 µM: TGI (COLO 205 colon)
12.1 µM: TGI (U251 CNS)
active: GI50 (CCRF-CEM leukemia) 0.298 µM

Cn1ncc2c(/N=C/c3cccs3)[nH]c(=S)nc21
65.7 µM: TGI (COLO 205 colon)
> 100 µM: TGI (CCRF-CEM leukemia) | TGI (HCC-2998 colon) | TGI (K-562 leukemia) | TGI (LOX IMVI melanoma) | TGI (OVCAR-4 ovarian) | TGI (RPMI-8226 leukemia) | TGI (SNB-19 CNS) | TGI (U251 CNS)
inactive: GI50 (CCRF-CEM leukemia) 55.7 µM | GI50 (COLO 205 colon) 22.8 µM | GI50 (HCC-2998 colon) 32.9 µM | GI50 (K-562 leukemia) 21.2 µM | GI50 (LOX IMVI melanoma) 36.4 µM | GI50 (OVCAR-4 ovarian) > 59 µM | GI50 (RPMI-8226 leukemia) 31.6 µM | GI50 (SF-268 CNS) 26.2 µM | GI50 (SNB-19 CNS) 49.9 µM | GI50 (U251 CNS) 43.1 µM
> 94.6 µM: TGI (SF-268 CNS)

O=C(Nc1n[nH]c2nc(-c3ccco3)ccc12)C1CC1
inactive: GI50 (CCRF-CEM leukemia) > 25 µM | GI50 (COLO 205 colon) > 25 µM | GI50 (HCC-2998 colon) > 25 µM | GI50 (K-562 leukemia) > 25 µM | GI50 (LOX IMVI melanoma) > 25 µM | GI50 (OVCAR-4 ovarian) > 25 µM | GI50 (RPMI-8226 leukemia) > 25 µM | GI50 (SF-268 CNS) > 25 µM | GI50 (SNB-19 CNS) > 25 µM | GI50 (U251 CNS) > 25 µM
> 25 µM: TGI (CCRF-CEM leukemia) | TGI (COLO 205 colon) | TGI (HCC-2998 colon) | TGI (K-562 leukemia) | TGI (LOX IMVI melanoma) | TGI (OVCAR-4 ovarian) | TGI (RPMI-8226 leukemia) | TGI (SF-268 CNS) | TGI (SNB-19 CNS) | TGI (U251 CNS)

O=C(Nc1ccccc1)Nc1cccc(-n2cc(-c3ccncc3)c(-c3ccc(O)c(Cl)c3)n2)c1
6.13 µM: TGI (RPMI-8226 leukemia)
9.79 µM: TGI (HCC-2998 colon)
25.7 µM: TGI (OVCAR-4 ovarian)
inactive: GI50 (CCRF-CEM leukemia) 3.22 µM | GI50 (COLO 205 colon) 4.95 µM | GI50 (HCC-2998 colon) 3.19 µM | GI50 (K-562 leukemia) 3.59 µM | GI50 (LOX IMVI melanoma) 2.54 µM | GI50 (OVCAR-4 ovarian) 3.45 µM | GI50 (RPMI-8226 leukemia) 2.35 µM | GI50 (SF-268 CNS) 5.73 µM | GI50 (SNB-19 CNS) 6.27 µM | GI50 (U251 CNS) 2.17 µM
> 100 µM: TGI (SNB-19 CNS)
13.4 µM: TGI (K-562 leukemia)
27.5 µM: TGI (CCRF-CEM leukemia)
6.06 µM: TGI (U251 CNS)
68.8 µM: TGI (SF-268 CNS)
25.6 µM: TGI (LOX IMVI melanoma)
21 µM: TGI (COLO 205 colon)

Cc1ccccc1NC(=O)C(=O)C(c1cnc2ccc([N+](=O)[O-])cc2n1)[N+](=O)[O-] (centres undefined)
> 100 µM: TGI (CCRF-CEM leukemia) | TGI (COLO 205 colon) | TGI (HCC-2998 colon) | TGI (K-562 leukemia) | TGI (LOX IMVI melanoma) | TGI (OVCAR-4 ovarian) | TGI (RPMI-8226 leukemia) | TGI (SF-268 CNS) | TGI (SNB-19 CNS) | TGI (U251 CNS)

COc1ccc(NC(=O)C(=O)C2CNC(=O)NC2=O)c(OC)c1 (centres undefined)
> 100 µM: TGI (CCRF-CEM leukemia) | TGI (COLO 205 colon) | TGI (HCC-2998 colon) | TGI (K-562 leukemia) | TGI (LOX IMVI melanoma) | TGI (OVCAR-4 ovarian) | TGI (RPMI-8226 leukemia) | TGI (SF-268 CNS) | TGI (SNB-19 CNS) | TGI (U251 CNS)
